Values quoted from earlier work as cited in patent US11648199B2 (AI Therapeutics, Inc, priority 2014, dated 2023).

Tests used:
[1] = cancer patients administered temsirolimus or everolimus; cited from earlier work
[2] = clinical use; cited from earlier work

Structure (SMILES)	patients who may experience mild grade pulmonary toxicity [1] [%]	lung toxicity [2]
CO[C@H]1C[C@@H]2CC[C@@H](C)[C@@](O)(O2)C(=O)C(=O)N2CCCC[C@H]2C(=O)O[C@H]([C@H](C)C[C@@H]2CC[C@@H](OCCO)[C@H](OC)C2)CC(=O)[C@H](C)/C=C(\C)[C@@H](O)[C@@H](OC)C(=O)[C@H](C)C[C@H](C)/C=C/C=C/C=C/1C [everolimus]	10	–
C=CC[C@@H]1/C=C(\C)C[C@H](C)C[C@H](OC)[C@H]2O[C@@](O)(C(=O)C(=O)N3CCCC[C@H]3C(=O)O[C@H](/C(C)=C/[C@@H]3CC[C@@H](O)[C@H](OC)C3)[C@H](C)[C@@H](O)CC1=O)[C@H](C)C[C@@H]2OC [tacrolimus]	–	did not show lung toxicity
CO[C@H]1C[C@@H]2CC[C@@H](C)[C@@](O)(O2)C(=O)C(=O)N2CCCC[C@H]2C(=O)O[C@H]([C@H](C)C[C@@H]2CC[C@@H](OC(=O)C(C)(CO)CO)[C@H](OC)C2)CC(=O)[C@H](C)/C=C(\C)[C@@H](O)[C@@H](OC)C(=O)[C@H](C)C[C@H](C)/C=C/C=C/C=C/1C [temsirolimus]	10	–
